Where two headings read alike, the source gives them in different places.

Experimental findings from US10001584B2, “Optical film, and polarizing plate and liquid crystal display device that use this optical film” (FUJIFILM Corporation, priority 2013, dated 2018) are described below.

Data set [1] in a line: Volatility: mass change rate of the compound by TG/DTA, held at 140° C. for 1 hour. It is filed as physicochemical. To be noted: for Volatility: held at 140° C. for 1 hour; for volatility suppression effect: in words, discussion of Table 1. On the procedure: The compound denoted by Formula (I) in the present invention was heated from room temperature to 140° C. by using a TG/DTA measurement device (TG/DTA7200 manufactured by Hitachi High-Tech Science Corporation), a change rate of the mass of the compound at the time of being held at 140° C. for 1 hour (a change rate with respect to the mass before being heated) was measured, and the volatility was evaluated on the basis of the following criteria.

A short description of data set [2]: pKa by alkali titration with automatic potentiometric titrator. It counts as physicochemical. The note with it: mixed solvent THF/H2O=6/4 (volume ratio), 25° C.; for pKa: Table 1. As for the experimental part: pKa of the obtained exemplificative compound was measured in a mixed solvent having a volume ratio of tetrahydrofuran (THF)/water (H2O)=6/4 at 25° C. by an alkali titration method using automatic potentiometric titrator [AT-610: manufactured by Kyoto Electronics Manufacturing Co., Ltd.].
The pKa of the compound of the present invention and the comparative compound in a mixed solvent having a volume ratio of tetrahydrofuran (THF)/water (H2O)=6/4 at 25° C. was measured by an alkali titration method using automatic potentiometric titrator (AT-610: manufactured by Kyoto Electronics Manufacturing Co., Ltd.).

Where [3] appears, read: tetrahydrofuran/water 6/4 (v/v) mixed solvent, read-out: pKa.

By pKa is commonly meant the pH at which an ionisable group is half protonated. As for `O=C(O)CN(CC(=O)O)Cc1ccccc1` [(0-2)], the Volatility result in data set [1] (compound alone, Table 1) is “B (The change rate of the mass of greater than or equal to 0.2% and less than 0.5%)”. In addition, the volatility suppression effect entry in data set [1] is given as “insufficient”. The pKa in data set [2] (setting [3]) was 3.2.
In the case of `CCC(Oc1ccc(C(C)(C)CC)cc1C(C)(C)CC)C(=O)Nc1cccc(C(=O)O)c1` (stereo not shown) [(0-3)], in data set [1] (compound alone, Table 1), the Volatility result is “A (The change rate of the mass of less than or equal to 0.2%)”. In addition, the pKa in data set [2] (setting [3]) was determined as 6.6.
Regarding `O=C1NC(=O)N(Cc2ccccc2)C(=O)C1c1ccccc1` (stereo not shown) [Comparative Compound (0-1)], the Volatility result in data set [1] (compound alone, Table 1) is “B (The change rate of the mass of greater than or equal to 0.2% and less than 0.5%)”. For the same molecule, the volatility suppression effect entry in data set [1] is listed as “insufficient”. The pKa in data set [2] (setting [3]) is 3.7.
In the case of `O=C(O)CN(CC(=O)OCc1ccccc1)CC(=O)OCc1ccccc1` [Exemplificative Compound (1-1)], the Volatility entry in data set [1] (additive, Table 3) is “A (The change rate of the mass of less than or equal to 0.2%)”; in data set [1] (additive, Table 4), “A (The change rate of the mass of less than or equal to 0.2%)”; in data set [1] (compound alone, Table 1), “A (The change rate of the mass of less than or equal to 0.2%)”. The “pKa Value” in data set [2] is recorded as 6.0. Besides, the pKa in data set [2] is 6.0.
